Results from paper PMC6576746, “Rational discovery of dual-indication multi-target PDE/Kinase inhibitor for precision anti-cancer therapy using structural systems pharmacology” (PLoS Computational Biology, 2019).

How the values were obtained:
Assay in all cases: biochemical
Design in all cases: DiscoverX KinomeScan competition binding assay across human kinases; per cent of control at 10 and 100 uM
[1] = molecular target: BRAF(V600E) (Homo sapiens, UniProt P15056, V600E); conditions: competition binding, % of control; read-out: Percent Control (100 uM Levosimendan)
Outline: (§1)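 Binding is expressed as %control, normalised between positive and negative control signals. The compound (levosimendan) was tested at 10 μM and 100 μM in the DiscoverX KinomeScan competition binding format against human kinases.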

[2] = molecular target: T1, MLK2 (Homo sapiens, UniProt Q02779); conditions: competition binding, % of control; read-out: Percent Control (100 uM Levosimendan)
T1 construct: gene MAP3K10
Outline: as §1

[3] = molecular target: PRKG2 (Homo sapiens, UniProt Q13237); conditions: competition binding, % of control; read-out: Percent Control (100 uM Levosimendan)
Outline: as §1

[4] = molecular target: T2, JAK2(JH1domain-catalytic) (Homo sapiens, UniProt O60674); conditions: competition binding, % of control
T2 construct: JH1domain-catalytic
Outline: as §1

[5] = molecular target: T3, RSK2(Kin.Dom.1-N-terminal) (Homo sapiens, UniProt P51812); conditions: competition binding, % of control
T3 construct: gene RPS6KA3; Kin.Dom.1-N-terminal
Outline: as §1

[6] = molecular target: EGFR(L858R,T790M) (Homo sapiens, UniProt P00533, L858R/T790M); conditions: competition binding, % of control; read-out: Percent Control (100 uM Levosimendan)
Outline: as §1

[7] = molecular target: FLT1 (Homo sapiens, UniProt P17948); conditions: competition binding, % of control
Outline: as §1

[8] = molecular target: T4, DCAMKL2 (Homo sapiens, UniProt Q8N568); conditions: competition binding, % of control; read-out: Percent Control (100 uM Levosimendan)
T4 construct: gene DCLK2
Outline: as §1

[9] = molecular target: MUSK (Homo sapiens, UniProt O15146); conditions: competition binding, % of control; read-out: Percent Control (100 uM Levosimendan)
Outline: as §1

[10] = molecular target: T5, YSK4 (Homo sapiens, UniProt Q56UN5); conditions: competition binding, % of control
T5 construct: gene MAP3K19
Outline: as §1

[11] = molecular target: PRKCQ (Homo sapiens, UniProt Q04759); conditions: competition binding, % of control
Outline: as §1

[12] = molecular target: T6, QSK (Homo sapiens, UniProt Q9Y2K2); conditions: competition binding, % of control; read-out: Percent Control (100 uM Levosimendan)
T6 construct: gene SIK3
Outline: as §1

[13] = molecular target: PIK3CA(H1047Y) (Homo sapiens, UniProt P42336, H1047Y); conditions: competition binding, % of control; read-out: Percent Control (100 uM Levosimendan)
Outline: as §1

[14] = molecular target: EPHB4 (Homo sapiens, UniProt P54760); conditions: competition binding, % of control; read-out: Percent Control (100 uM Levosimendan)
Outline: as §1

[15] = molecular target: MAP4K2 (Homo sapiens, UniProt Q12851); conditions: competition binding, % of control; read-out: Percent Control (100 uM Levosimendan)
Outline: as §1

[16] = molecular target: BMPR1A (Homo sapiens, UniProt P36894); conditions: competition binding, % of control; read-out: Percent Control (100 uM Levosimendan)
Outline: as §1

[17] = molecular target: T7, MEK2 (Homo sapiens, UniProt P36507); conditions: competition binding, % of control; read-out: Percent Control (100 uM Levosimendan)
T7 construct: gene MAP2K2
Outline: as §1

[18] = molecular target: T8, NDR1 (Homo sapiens, UniProt Q15208); conditions: competition binding, % of control; read-out: Percent Control (100 uM Levosimendan)
T8 construct: gene STK38
Outline: as §1

[19] = read-out: Percent Control (10 uM Levosimendan)
[20] = read-out: Percent Control (100 uM Levosimendan)

FLT1, sequence (P17948 whole entry): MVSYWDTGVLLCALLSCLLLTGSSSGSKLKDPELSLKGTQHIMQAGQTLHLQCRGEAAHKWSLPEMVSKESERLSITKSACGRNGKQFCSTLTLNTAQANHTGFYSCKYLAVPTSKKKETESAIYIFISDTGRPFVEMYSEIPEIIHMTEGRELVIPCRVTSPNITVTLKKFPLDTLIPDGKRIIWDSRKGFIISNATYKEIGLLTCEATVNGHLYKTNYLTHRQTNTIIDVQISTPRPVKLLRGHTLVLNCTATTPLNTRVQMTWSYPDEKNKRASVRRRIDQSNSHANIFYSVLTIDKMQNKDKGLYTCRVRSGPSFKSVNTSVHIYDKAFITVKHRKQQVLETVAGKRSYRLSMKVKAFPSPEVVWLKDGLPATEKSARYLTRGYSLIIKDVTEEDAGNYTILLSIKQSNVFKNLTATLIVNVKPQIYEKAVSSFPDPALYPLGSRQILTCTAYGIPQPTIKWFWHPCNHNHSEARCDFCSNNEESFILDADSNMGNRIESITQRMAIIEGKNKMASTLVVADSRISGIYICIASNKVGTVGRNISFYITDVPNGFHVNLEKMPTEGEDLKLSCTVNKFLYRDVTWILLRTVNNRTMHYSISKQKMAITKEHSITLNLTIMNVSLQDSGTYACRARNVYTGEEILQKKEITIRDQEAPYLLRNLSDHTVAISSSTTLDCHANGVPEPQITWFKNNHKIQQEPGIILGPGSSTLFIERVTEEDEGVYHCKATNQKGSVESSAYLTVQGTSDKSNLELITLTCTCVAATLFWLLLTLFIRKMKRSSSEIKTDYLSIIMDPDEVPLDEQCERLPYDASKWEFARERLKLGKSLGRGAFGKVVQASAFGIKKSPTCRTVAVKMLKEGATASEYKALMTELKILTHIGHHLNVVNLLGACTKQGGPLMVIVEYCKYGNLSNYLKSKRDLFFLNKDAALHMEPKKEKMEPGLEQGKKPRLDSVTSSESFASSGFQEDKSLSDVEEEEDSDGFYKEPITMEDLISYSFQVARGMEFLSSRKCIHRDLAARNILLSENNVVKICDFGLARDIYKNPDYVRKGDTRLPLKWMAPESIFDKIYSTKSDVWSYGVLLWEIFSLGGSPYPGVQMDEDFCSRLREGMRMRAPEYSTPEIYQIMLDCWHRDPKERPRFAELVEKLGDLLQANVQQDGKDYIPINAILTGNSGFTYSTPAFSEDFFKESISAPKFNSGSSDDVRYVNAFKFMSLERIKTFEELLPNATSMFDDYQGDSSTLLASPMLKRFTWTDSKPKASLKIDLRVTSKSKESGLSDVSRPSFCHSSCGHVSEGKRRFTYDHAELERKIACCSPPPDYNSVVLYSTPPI
T2 sequence (O60674 whole entry): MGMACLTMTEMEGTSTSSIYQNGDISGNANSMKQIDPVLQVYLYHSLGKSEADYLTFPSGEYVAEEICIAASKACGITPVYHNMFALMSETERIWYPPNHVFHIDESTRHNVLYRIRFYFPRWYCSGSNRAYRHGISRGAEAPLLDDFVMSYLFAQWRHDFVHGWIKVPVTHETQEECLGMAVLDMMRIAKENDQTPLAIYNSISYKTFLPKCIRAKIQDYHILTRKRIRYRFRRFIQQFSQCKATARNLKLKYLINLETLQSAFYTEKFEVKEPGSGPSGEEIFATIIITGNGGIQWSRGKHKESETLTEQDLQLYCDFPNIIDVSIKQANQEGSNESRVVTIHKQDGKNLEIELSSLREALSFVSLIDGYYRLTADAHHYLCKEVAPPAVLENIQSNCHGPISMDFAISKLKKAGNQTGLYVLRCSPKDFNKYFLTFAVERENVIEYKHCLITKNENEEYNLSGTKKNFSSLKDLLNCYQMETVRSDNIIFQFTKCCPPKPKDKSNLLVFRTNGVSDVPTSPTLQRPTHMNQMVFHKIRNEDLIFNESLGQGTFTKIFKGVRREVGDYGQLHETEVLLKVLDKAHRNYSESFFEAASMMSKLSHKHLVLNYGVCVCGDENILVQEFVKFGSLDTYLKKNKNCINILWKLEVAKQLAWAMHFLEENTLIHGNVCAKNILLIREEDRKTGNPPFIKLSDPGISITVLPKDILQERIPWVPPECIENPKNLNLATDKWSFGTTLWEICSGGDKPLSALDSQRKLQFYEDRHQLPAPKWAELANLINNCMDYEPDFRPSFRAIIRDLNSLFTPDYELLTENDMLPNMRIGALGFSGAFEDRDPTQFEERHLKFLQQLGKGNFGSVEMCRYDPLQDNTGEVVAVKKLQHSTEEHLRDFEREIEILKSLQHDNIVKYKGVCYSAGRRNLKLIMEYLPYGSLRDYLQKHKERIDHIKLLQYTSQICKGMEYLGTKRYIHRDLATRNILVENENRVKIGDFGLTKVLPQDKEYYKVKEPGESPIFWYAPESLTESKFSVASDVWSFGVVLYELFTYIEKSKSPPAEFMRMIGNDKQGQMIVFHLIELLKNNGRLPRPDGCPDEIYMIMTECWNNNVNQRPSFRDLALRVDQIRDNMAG
T5 sequence (Q56UN5 whole entry): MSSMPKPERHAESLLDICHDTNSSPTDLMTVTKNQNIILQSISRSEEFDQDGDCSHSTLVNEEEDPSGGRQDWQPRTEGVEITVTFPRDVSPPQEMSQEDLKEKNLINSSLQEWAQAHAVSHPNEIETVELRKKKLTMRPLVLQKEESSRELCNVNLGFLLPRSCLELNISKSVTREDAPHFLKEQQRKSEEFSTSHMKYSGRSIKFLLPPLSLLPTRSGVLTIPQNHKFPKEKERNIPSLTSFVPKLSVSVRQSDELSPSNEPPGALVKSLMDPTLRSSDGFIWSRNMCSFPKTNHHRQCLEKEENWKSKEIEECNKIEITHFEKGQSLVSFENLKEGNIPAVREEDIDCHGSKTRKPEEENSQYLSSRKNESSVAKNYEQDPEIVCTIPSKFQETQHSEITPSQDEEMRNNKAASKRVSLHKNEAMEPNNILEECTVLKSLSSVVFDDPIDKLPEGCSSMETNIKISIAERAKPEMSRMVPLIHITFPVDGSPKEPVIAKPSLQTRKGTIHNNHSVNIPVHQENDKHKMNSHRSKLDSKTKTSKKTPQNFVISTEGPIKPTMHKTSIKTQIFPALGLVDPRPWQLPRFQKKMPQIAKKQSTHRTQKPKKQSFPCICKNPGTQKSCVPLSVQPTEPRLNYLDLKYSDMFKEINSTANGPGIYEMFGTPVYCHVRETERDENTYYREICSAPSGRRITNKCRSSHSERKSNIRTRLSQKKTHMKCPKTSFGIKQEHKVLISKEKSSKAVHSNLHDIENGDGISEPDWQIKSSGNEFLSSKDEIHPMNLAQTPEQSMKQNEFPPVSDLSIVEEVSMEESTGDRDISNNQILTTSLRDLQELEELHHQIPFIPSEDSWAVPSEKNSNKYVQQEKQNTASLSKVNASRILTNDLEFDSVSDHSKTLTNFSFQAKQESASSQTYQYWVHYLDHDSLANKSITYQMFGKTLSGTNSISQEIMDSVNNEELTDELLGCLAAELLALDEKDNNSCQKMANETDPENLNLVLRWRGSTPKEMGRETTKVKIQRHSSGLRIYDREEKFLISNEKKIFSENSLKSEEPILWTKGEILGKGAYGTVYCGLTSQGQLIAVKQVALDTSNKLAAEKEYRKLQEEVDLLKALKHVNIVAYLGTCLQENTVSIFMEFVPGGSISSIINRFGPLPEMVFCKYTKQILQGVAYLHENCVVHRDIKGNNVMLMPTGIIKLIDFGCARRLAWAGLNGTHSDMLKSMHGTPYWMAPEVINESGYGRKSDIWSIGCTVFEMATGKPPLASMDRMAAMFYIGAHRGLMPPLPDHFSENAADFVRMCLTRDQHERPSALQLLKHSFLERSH
PRKCQ, sequence (Q04759 whole entry): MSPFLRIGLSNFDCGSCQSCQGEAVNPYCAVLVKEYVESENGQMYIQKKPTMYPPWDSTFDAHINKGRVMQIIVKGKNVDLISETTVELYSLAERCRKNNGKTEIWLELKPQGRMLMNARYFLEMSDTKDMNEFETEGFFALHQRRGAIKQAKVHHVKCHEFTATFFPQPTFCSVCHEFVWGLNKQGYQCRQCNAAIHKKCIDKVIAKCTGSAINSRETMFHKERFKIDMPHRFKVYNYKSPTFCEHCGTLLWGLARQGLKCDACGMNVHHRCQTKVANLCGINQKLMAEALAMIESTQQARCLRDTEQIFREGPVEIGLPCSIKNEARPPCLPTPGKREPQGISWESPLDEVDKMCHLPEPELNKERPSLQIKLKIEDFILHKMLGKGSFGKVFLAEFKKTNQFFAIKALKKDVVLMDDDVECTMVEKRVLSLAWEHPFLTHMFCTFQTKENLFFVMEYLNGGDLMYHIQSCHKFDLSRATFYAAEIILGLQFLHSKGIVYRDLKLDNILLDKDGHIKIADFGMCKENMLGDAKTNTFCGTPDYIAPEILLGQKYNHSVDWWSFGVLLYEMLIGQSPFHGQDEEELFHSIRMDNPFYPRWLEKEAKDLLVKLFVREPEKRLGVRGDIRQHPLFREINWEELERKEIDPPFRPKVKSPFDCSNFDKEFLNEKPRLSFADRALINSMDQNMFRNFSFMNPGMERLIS
T8 sequence (Q15208 whole entry): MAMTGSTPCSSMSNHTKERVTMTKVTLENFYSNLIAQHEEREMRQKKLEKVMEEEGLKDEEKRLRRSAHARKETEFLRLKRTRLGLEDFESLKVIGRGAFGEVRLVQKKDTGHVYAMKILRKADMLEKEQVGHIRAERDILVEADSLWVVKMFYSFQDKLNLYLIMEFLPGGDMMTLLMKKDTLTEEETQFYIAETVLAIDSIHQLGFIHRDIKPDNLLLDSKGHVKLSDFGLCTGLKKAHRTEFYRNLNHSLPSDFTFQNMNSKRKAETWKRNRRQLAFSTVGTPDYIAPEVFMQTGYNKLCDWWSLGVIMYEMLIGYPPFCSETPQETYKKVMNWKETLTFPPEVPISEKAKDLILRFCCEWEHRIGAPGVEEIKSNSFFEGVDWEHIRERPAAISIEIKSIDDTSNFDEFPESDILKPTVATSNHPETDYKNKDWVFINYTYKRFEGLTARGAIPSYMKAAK

remaining binding at 100 µM [1]: 78%
remaining binding at 100 µM [2]: 81%
remaining binding at 100 µM [3]: 98%
remaining binding at 10 µM [4, 19]: 88%
remaining binding at 100 µM [4, 20]: 49%
remaining binding at 10 µM [5, 19]: 85%
remaining binding at 100 µM [5, 20]: 35%
remaining binding at 100 µM [6]: 82%
remaining binding at 10 µM [7, 19]: 98%
remaining binding at 100 µM [7, 20]: 44%
remaining binding at 100 µM [8]: 100%
remaining binding at 100 µM [9]: 100%
remaining binding at 10 µM [10, 19]: 48%
remaining binding at 100 µM [10, 20]: 10%
remaining binding at 10 µM [11, 19]: 5.2%
remaining binding at 100 µM [11, 20]: 36%
remaining binding at 100 µM [12]: 82%
remaining binding at 100 µM [13]: 100%
remaining binding at 100 µM [14]: 85%
remaining binding at 100 µM [15]: 100%
remaining binding at 100 µM [16]: 93%
remaining binding at 100 µM [17]: 70%
remaining binding at 100 µM [18]: 62%
Structure (SMILES): C[C@@H]1CC(=O)NN=C1c1ccc(NN=C(C#N)C#N)cc1 [levosimendan]
